In the METLIN SMRT retention time set (Domingo-Almenara et al. 2019) one finds RP-LC retention time data, which are given here for 59 compounds.

This data set can be described thus: gradient 5% acetonitrile 3 min, to 50% in 2 min, to 85% in 15 min, held 3 min, 100 µL/min. Particulars: column: Zorbax Extend-C18 2.1 x 50 mm; eluents: water / acetonitrile, 0.1% formic acid. The procedure, abridged:
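Retention time was recorded from adduct peaks, which were picked computationally and each inspected manually. Pure standards ran in mixtures of ~100 molecules on HPLC coupled to a quadrupole time-of-flight mass spectrometer, in positive and negative ionization mode, through a Zorbax Extend-C18 column (2.1 × 50 mm, 1.8 μm) at 100 μL/min. Eluents were water and acetonitrile, each with 0.1% formic acid.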
For the compound `CSc1ccc(NC(=O)C2CCN(C(=O)c3ncn4c3COC(c3ccc(F)cc3)C4)CC2)cc1` (centres undefined), the RP-LC retention time is 864 s.
The figure for `Cc1nnc2c(=O)n(CC(=O)NCc3ccc(F)c(Cl)c3)c3cccnc3n12` is 723 s.
To `COCc1c(C(=O)O)nnn1Cc1ccccc1C` belongs 714 s; to `CCn1ccc(NC(=O)c2cccc(C)c2)n1`, 743 s.
The figure for `O=C(NCc1ccc(F)cc1)N1CCN(c2cc(-c3ccncc3)[nH]n2)CC1` is 611 s.
`CCc1nc2cc(N3CCCC(C(=O)NCc4ccco4)C3)cnc2nc1CC` (centres undefined) returned an RP-LC retention time of 673 s.
On to `CCN(CC)CCNc1ncnc2onc(-c3cccc(Cl)c3)c12`, for which the RP-LC retention time came out at 660 s.
On to `CCn1cc(CCNC(=O)CC(C)C)c2cccnc21`, for which the RP-LC retention time was determined as 656 s.
Take `O=C(CN1CCN(Cc2ccccc2)C1=O)NCC1CCCCC1`: the RP-LC retention time turned out to be 682 s.
Take `CC1=C(c2ccc(C)c(C)c2)S(=O)(=O)N=C1N1CCCN(C(=O)CC(C)C)CC1`: the RP-LC retention time turned out to be 915 s.
The figure for `CCC1(CC)NC(=O)N(CC(=O)Nc2ccc(C(=O)OC)cc2)C1=O` is 671 s; for `CC1CCCCN1S(=O)(=O)c1ccc2nc(N3CCN(c4ccccc4F)CC3)ccc2c1` (centres undefined) it is 1180 s.
The figure for `CCn1ccc(C(=O)N2CCCN(C3=NS(=O)(=O)C(c4ccc(C)cc4)=C3C)CC2)n1` is 790 s.
Consider `O=S(=O)(c1ccc2c(c1)CCC2)N1CCC(CN2CCCCCC2)CC1`, for which the RP-LC retention time was 708 s.
The compound `Cn1nc(-c2nnc(-c3ccccc3F)o2)c2c1CCN(S(=O)(=O)c1ccccc1F)C2` yielded an RP-LC retention time of 903 s.
With `O=C(NCCc1c[nH]c2ccccc12)C1CC(=O)N(CCc2ccccc2)C1` (centres undefined), the RP-LC retention time was determined as 758 s.
To `O=C(CN1C(=O)COc2ccc(C(=O)N3CCCCC3)cc21)NCc1ccco1` belongs 691 s.
To `COc1ccc(Cl)cc1S(=O)(=O)N1C[C@@H](F)C[C@H]1C(=O)N1CCCCC1` belongs 785 s; to `O=C(c1ccc(Cl)s1)N1CCN(c2ncnc3c2CCC3)CC1`, 638 s.
To `CC(C)(C)NCC(O)COc1nsnc1N1CCOCC1` (centres undefined) belongs 626 s.
As for `CC(=O)N1CCC(C(=O)N2CCCN(c3cc(-c4ccc(Cl)cc4)[nH]n3)CC2)CC1`, the RP-LC retention time was determined as 648 s.
The figure for `COCCNC(=O)C1CCCN(C(=O)c2cc(C)cc(C)c2)C1` (centres undefined) is 686 s.
The figure for `COCCNC(=O)CN1c2ccccc2NC2=C(C(=O)CC(C)(C)C2)C1c1ccc(OC)cc1` (centres undefined) is 743 s; for `CCn1c(=O)c2ccn(CC(=O)Nc3cc(C)cc(C)c3)c2n(CC)c1=O` it is 792 s.
As for `COc1cccc(OC)c1C(=O)Nc1nc2c(s1)CCc1ccccc1-2`, the RP-LC retention time came out at 1000 s.
To `CCOc1ccc(NS(=O)(=O)c2cc(C(=O)Nc3cccc(Cl)c3)n[nH]2)cc1` belongs 916 s.
To `CC(C)n1nc(CO)c2c1CCN(C(=O)C1COc3ccccc3O1)C2` (centres undefined) belongs 667 s; to `CCN1C(=O)c2cccnc2Sc2cc(CNC(=O)c3cccc4[nH]ccc34)ccc21`, 721 s; to `Cc1cc(C)n2nc(SCC(=O)NCCc3ccccc3)nc2n1`, 689 s.
Take `CCC1Oc2ccc(S(=O)(=O)N3CCC(C(=O)N(CC)Cc4ccccc4)CC3)cc2NC1=O` (centres undefined): the RP-LC retention time turned out to be 924 s.
To `CCN1C(=O)COc2cc(-c3noc(C(=O)N4CCN(c5cccc(Cl)c5)CC4)n3)ccc21` belongs 1140 s.
To `CN(CCCNC(=O)C1CCc2nc(N3CCCC3)ncc2C1)c1ccccc1` (centres undefined) belongs 560 s.
The figure for `Cc1ccc(-c2nccn3cc(C(=O)O)nc23)cc1` is 696 s.
As for `Cc1cc(C)n2nc(CN(C(=O)c3ccco3)c3cccc(Cl)c3)nc2n1`, the RP-LC retention time was 776 s.
To `Cc1nc2cc(-c3noc(-c4cccc(C(F)(F)F)c4)n3)ccc2o1` belongs 1220 s; to `CC1CCCN(C(=O)c2cc3c(s2)CCN(C(=O)c2ccccc2)C3)C1` (centres undefined), 589 s; to `Cc1ccc(Nc2c(-c3ccc(C)cc3)nc3ccc(C)cn23)cc1`, 797 s.
Consider `CC(C)NCc1ccc(-c2ccc(Cl)cc2)o1`, for which the RP-LC retention time amounted to 669 s.
The compound `COc1ccc(C2Cn3nnc(-c4nc(-c5ccc(F)cc5)no4)c3CO2)cc1` (centres undefined) yielded an RP-LC retention time of 1130 s.
The figure for `COc1ccc(OC)c(NC(=O)CSc2ccc(N3CCCC(C(=O)NC4CC4)C3)nn2)c1` (centres undefined) is 672 s; for `NC(=O)C1CCN(C(=O)CCc2nnc3c4cc(-c5ccc(Cl)cc5)nn4ccn23)CC1` it is 671 s; for `CNC(=O)c1ccc(-c2nc3cc(NS(=O)(=O)c4cccc(Cl)c4)ccc3n2C)cc1` it is 653 s.
The figure for `CN(C1=NC(=O)/C(=C/c2cc(Cl)ccc2OCC(=O)O)S1)c1ccc(O)cc1` is 669 s.
Turning to `Cc1cc2[nH]c(C(=O)Nc3ccccc3Br)c(CN(C)C)c2s1`, the RP-LC retention time was determined as 659 s.
Turning to `CCN(C(=O)CN1C(=O)NC(c2ccc(Cl)cc2)C2=C1COC2=O)c1ccccc1` (centres undefined), the RP-LC retention time turned out to be 834 s.
To `Cc1ccc(Cl)cc1NC(=O)N1CCc2nc(-c3ccc(F)cc3)ncc2C1` belongs 1030 s; to `O=C(Cn1cccc(-c2nc(-c3ccc(Cl)cc3)no2)c1=O)Nc1ccc(F)cc1F`, 971 s.
`Cc1ccccc1CNC(=O)C1(C)CCCN(C(=O)Nc2ccc(Br)cc2)C1` (centres undefined) returned an RP-LC retention time of 1020 s.
In turn, `COc1cc(-c2nnc(SCC(=O)N3CCCC(C)C3)o2)cc(OC)c1OC` (centres undefined) yielded an RP-LC retention time of 889 s.
To `O=C(NCc1ccc2c(c1)CCCN2C(=O)C1CCC1)c1cc(F)ccc1Cl` belongs 884 s; to `O=C(NCc1cc(F)ccc1F)c1ccc2ncnc(N3CCCC3)c2c1`, 650 s.
As for `COCc1noc(C2CCCCN2C(=O)c2cnccn2)n1` (centres undefined), the RP-LC retention time turned out to be 596 s.
The figure for `Nc1ncnc(Nc2ccccc2Cl)c1[N+](=O)[O-]` is 777 s; for `O=C(NCCc1cccs1)c1nc(Nc2ccc(F)cc2)c2ccccc2n1` it is 825 s; for `Cc1ccc(S(=O)(=O)N2CCC3(CC2)NCCN=C3NCc2ccc(Cl)cc2)cc1` it is 742 s.
To `Cc1ccc(-c2nc3cnc(Br)cn3c2Nc2ccc3c(c2)OCO3)cc1` belongs 982 s.
To `COc1ccc(C2(C(=O)NCc3ccc4c(c3)ncn4C(C)C)CC2)cc1` belongs 678 s.
`CCOc1ccc(-n2ccn3cc(-c4ccc(F)cc4)nc3c2=O)cc1` returned an RP-LC retention time of 860 s.
The figure for `O=C(Nc1ccc2c(c1)OCCO2)c1coc2ccccc12` is 826 s.
